Data as given in patent US10111890B2, “9-aminomethyl minocycline compounds and uses thereof” (Paratek Pharmaceuticals, Inc., priority 2016, dated 2018).
Read-outs that look alike come from different tables or passages of the source.

How the values were obtained:
[1] = Phase 1 food-effect crossover study: plasma PK after single 300 mg oral dose; type: in vivo, human; details: for AUC(0-inf) / AUC(0-t) / Cmax / Tmax: plasma, po, 300 mg
Experimental: These meals were to be consumed within 20 minutes. Dose administration for Treatments B, C, and D was based off of the end time of the meal. […] Geometric means were determined for AUC and Cmax. PK parameters were evaluated using non-compartmental analysis using Phoenix® WinNonlin® (Pharsight Corp, St. Louis, Mo.), Version 6.2.1. Confidence intervals (CI) for test treatments (fed states: Treatments B, C, and D) compared with the reference treatment (fasted state: Treatment A) were constructed for AUC0-24, AUC0-t, AUC0-inf, and Cmax.

[2] = Phase 1 food-effect study: safety and tolerability; type: in vivo, human
Experimental: Safety and tolerability was assessed by: Adverse events (AEs); vital sign measurements at multiple time-points within 24 hours post-dose in each treatment period; and clinical laboratory tests 24 hours post-dose in each treatment period.

[3] = Phase 1 multiple oral dose (300, 450, 600 mg once daily x 5 days) crossover study: plasma pharmacokinetics; details: for Day 1 PK Summary, Geom. Mean / Day 1 PK Summary, Mean / Day 5 PK Summary, Geom. Mean / Day 5 PK Summary, Mean: preliminary results; for half-life / Tmax / AUC(0-t) / Cmax: human; for half-life: in vivo; for Tmax / AUC(0-t) / Cmax: plasma; for Cmax: Mean Cmax; for exposure (dose-normalized AUC0-24) as % of that predicted if perfectly dose-proportional: increase in dose from 300 mg to 600 mg
Source text: Thus the study was designed as a Phase 1, randomized, double-blind, 3-period, crossover study in healthy adult subjects. The study consisted of a screening period (Day −21 through Day −2), 3 baseline periods (Day −1 of each period), 3 treatment periods (Day 1 through Day 6 of each period), and a study completion visit (within 6 to 10 days after the last dose of study drug in Period 3). There was a washout of at least 5 days between the last dose in one period and the first dose in the next period. Subjects were confined to the study site from Day −1 of Period 1 until discharge on Day 6 of Period 3, after the 24-hour blood sampling, urine sampling, and safety assessments were completed. Subjects returned to the study center 6 to 10 days after the last dose of study drug in Period 3 for the study completion visit.
All doses of study drug were administered in the morning with no food or drink except for water at least 6 hours prior to dosing. Subjects then had no food or drink except water for at least 2 hours after dosing and no dairy products, antacids, or multivitamins for 4 hours after dosing.
The 24-hour blood sample for Day 1 was collected prior to dosing on Day 2 for each period.
Point estimates and 90% CIs for differences on the log scale were exponentiated to obtain estimates for the ratios of geometric means and respective 90% CIs on the original scale. No adjustment was made for multiplicity.
The estimates of slope b were reported along with the corresponding 2-sided 90% CIs.

[4] = Prior Phase 1 studies: bioavailability / bioequivalence of oral tablet formulation; set-up: species or system human; details: in vivo; for bioavailability: human
[5] = single 300 mg oral dose, healthy subjects

## CN(C)c1cc(CNCC(C)(C)C)c(O)c2c1C[C@H]1C[C@H]3[C@H](N(C)C)C(O)=C(C(N)=O)C(=O)[C@@]3(O)C(O)=C1C2=O [Omadacycline, 9-[(2,2-dimethyl-propylamino)-methyl]-minocycline]
[1]; Treatment A: fasted overnight
  AUC0-24, Mean (Coefficient of Variation): 7.2 (28.1) mcg * h/mL
  AUC0-t, Mean (Coefficient of Variation): 7.2 (28.1) mcg * h/mL
[1]; human, in vivo, across all treatment periods, read-out: mean T1/2
  half-life: 13.5 to 13.8 h
[1]; human, Treatment A: fasted overnight (N = 30), read-out: AUC0-inf, Geometric LS Mean
  AUC(0-inf): 10600 ng·h/mL
[1]; human, Treatment A: fasted overnight, read-out: AUC0-24, Geometric LS Mean
  AUC(0-t): 7400 ng·h/mL
[1]; human, Treatment A: fasted overnight, read-out: AUC0-24, Mean (Coefficient of Variation)
  AUC(0-t): 7200 ng·h/mL
[1]; human, Treatment A: fasted overnight, read-out: AUC0-inf, Mean (Coefficient of Variation)
  AUC(0-inf): 10200 ng·h/mL
[1]; human, Treatment A: fasted overnight, read-out: AUC0-t, Geometric LS Mean
  AUC(0-t): 7400 ng·h/mL
[1]; human, Treatment A: fasted overnight, read-out: AUC0-t, Mean (Coefficient of Variation)
  AUC(0-t): 7200 ng·h/mL
[1]; human, Treatment A: fasted overnight, read-out: Cmax, Geometric LS Mean
  Cmax: 660 ng/mL
[1]; human, Treatment A: fasted overnight, read-out: Cmax, Mean (Coefficient of Variation)
  Cmax: 600 ng/mL
[1]; human, Treatment A: fasted overnight, read-out: Tmax
  Tmax: 2.5 h
[1]; human, Treatment B: high-fat nondairy meal 4 h before dosing, read-out: AUC0-24, Geometric LS Mean
  AUC(0-t): 6200 ng·h/mL
[1]; human, Treatment B: high-fat nondairy meal 4 h before dosing, read-out: AUC0-24, Mean (Coefficient of Variation)
  AUC(0-t): 6100 ng·h/mL
[1]; human, Treatment B: high-fat nondairy meal 4 h before dosing, read-out: AUC0-inf, Geometric LS Mean
  AUC(0-inf): 9000 ng·h/mL
[1]; human, Treatment B: high-fat nondairy meal 4 h before dosing, read-out: AUC0-inf, Mean (Coefficient of Variation)
  AUC(0-inf): 8800 ng·h/mL
[1]; human, Treatment B: high-fat nondairy meal 4 h before dosing, read-out: AUC0-t, Geometric LS Mean
  AUC(0-t): 6200 ng·h/mL
[1]; human, Treatment B: high-fat nondairy meal 4 h before dosing, read-out: AUC0-t, Mean (Coefficient of Variation)
  AUC(0-t): 6100 ng·h/mL
[1]; human, Treatment B: high-fat nondairy meal 4 h before dosing, read-out: Cmax, Geometric LS Mean
  Cmax: 560 ng/mL
[1]; human, Treatment B: high-fat nondairy meal 4 h before dosing, read-out: Cmax, Mean (Coefficient of Variation)
  Cmax: 600 ng/mL
[1]; human, Treatment B: high-fat nondairy meal 4 h before dosing, read-out: Tmax
  Tmax: 2.9 h
[1]; human, Treatment C: high-fat nondairy meal 2 h before dosing, read-out: AUC0-24, Geometric LS Mean
  AUC(0-t): 4300 ng·h/mL
[1]; human, Treatment C: high-fat nondairy meal 2 h before dosing, read-out: AUC0-24, Mean (Coefficient of Variation)
  AUC(0-t): 4200 ng·h/mL
[1]; human, Treatment C: high-fat nondairy meal 2 h before dosing, read-out: AUC0-inf, Geometric LS Mean
  AUC(0-inf): 6200 ng·h/mL
[1]; human, Treatment C: high-fat nondairy meal 2 h before dosing, read-out: AUC0-inf, Mean (Coefficient of Variation)
  AUC(0-inf): 6000 ng·h/mL
[1]; human, Treatment C: high-fat nondairy meal 2 h before dosing, read-out: AUC0-t, Geometric LS Mean
  AUC(0-t): 4300 ng·h/mL
[1]; human, Treatment C: high-fat nondairy meal 2 h before dosing, read-out: AUC0-t, Mean (Coefficient of Variation)
  AUC(0-t): 4200 ng·h/mL
[1]; human, Treatment C: high-fat nondairy meal 2 h before dosing, read-out: Cmax, Geometric LS Mean
  Cmax: 390 ng/mL
[1]; human, Treatment C: high-fat nondairy meal 2 h before dosing, read-out: Cmax, Mean (Coefficient of Variation)
  Cmax: 400 ng/mL
[1]; human, Treatment C: high-fat nondairy meal 2 h before dosing, read-out: Tmax
  Tmax: 2.9 h
[1]; human, Treatment D: high-fat meal incl. dairy 2 h before dosing, read-out: AUC0-24, Geometric LS Mean
  AUC(0-t): 2800 ng·h/mL
[1]; human, Treatment D: high-fat meal incl. dairy 2 h before dosing, read-out: AUC0-24, Mean (Coefficient of Variation)
  AUC(0-t): 2800 ng·h/mL
[1]; human, Treatment D: high-fat meal incl. dairy 2 h before dosing, read-out: AUC0-inf, Geometric LS Mean
  AUC(0-inf): 4000 ng·h/mL
[1]; human, Treatment D: high-fat meal incl. dairy 2 h before dosing, read-out: AUC0-inf, Mean (Coefficient of Variation)
  AUC(0-inf): 4000 ng·h/mL
[1]; human, Treatment D: high-fat meal incl. dairy 2 h before dosing, read-out: AUC0-t, Geometric LS Mean
  AUC(0-t): 2800 ng·h/mL
[1]; human, Treatment D: high-fat meal incl. dairy 2 h before dosing, read-out: AUC0-t, Mean (Coefficient of Variation)
  AUC(0-t): 2800 ng·h/mL
[1]; human, Treatment D: high-fat meal incl. dairy 2 h before dosing, read-out: Cmax, Geometric LS Mean
  Cmax: 270 ng/mL
[1]; human, Treatment D: high-fat meal incl. dairy 2 h before dosing, read-out: Cmax, Mean (Coefficient of Variation)
  Cmax: 300 ng/mL
[1]; human, Treatment D: high-fat meal incl. dairy 2 h before dosing, read-out: Tmax
  Tmax: 2.9 h
[1]; human, across all treatment periods, read-out: median Tmax
  Tmax: 2.5 to 2.9 h
[2]; [5]
  serious AE (SAE): no subject experienced a serious AE
  treatment-related adverse events, clinically relevant changes in laboratory values or vital signs: No treatment-related adverse events or clinically relevant changes in laboratory values, or vital signs occurred
[2]; single 300 mg oral dose, all other treatment groups, all measured time points
  median change from baseline in heart rate: ≤ 3 bpm
[2]; single oral dose (300 mg), healthy subjects
  tolerability: well tolerated
[3]; 300 mg oral once daily, Day 5
  Mean AUC0-24: 9267.2 ng·h/mL
[3]; 300 mg, Day 1
  Cmax/Dose, Geometric LS Means: 2.09 ng/mL/mg
[3]; 300 mg, Day 5
  Cmax/Dose, Geometric LS Means: 2.62 ng/mL/mg
[3]; 450 mg, Day 1
  Cmax/Dose, Geometric LS Means: 1.81 ng/mL/mg
[3]; 450 mg, Day 5
  Cmax/Dose, Geometric LS Means: 2.32 ng/mL/mg
[3]; 600 mg, Day 1
  Cmax/Dose, Geometric LS Means: 1.54 ng/mL/mg
[3]; 600 mg, Day 5
  Cmax/Dose, Geometric LS Means: 2.11 ng/mL/mg
[3]; 300 (dose), Day 1
  Day 1 PK Summary, Geom. Mean: 6,293.65
  Day 1 PK Summary, Mean: 6,560.73
[3]; 300 (dose), Day 5
  Day 5 PK Summary, Geom. Mean: 8,990.55
  Day 5 PK Summary, Mean: 9,351.02
[3]; 450 (dose), Day 1
  Day 1 PK Summary, Geom. Mean: 8,382.03
  Day 1 PK Summary, Mean: 8,959.13
[3]; 450 (dose), Day 5
  Day 5 PK Summary, Geom. Mean: 12,883.95
  Day 5 PK Summary, Mean: 13,363.54
[3]; 600 (dose), Day 1
  Day 1 PK Summary, Geom. Mean: 9,644.67
  Day 1 PK Summary, Mean: 9,990.20
[3]; 600 (dose), Day 5
  Day 5 PK Summary, Geom. Mean: 15,431.37
  Day 5 PK Summary, Mean: 16,171.61
[3]; all tested dose levels
  systemic exposure on Day 5 higher than on Day 1: ~50%
[3]; mean half-life in plasma (T1/2), across the 3 tested dose levels, Day 1
  half-life: ~13 h
[3]; mean half-life in plasma (T1/2), across the 3 tested dose levels, Day 5
  half-life: ~16 h
[3]; po, 300 mg, Mean T1/2, 300 mg oral once daily, Day 1
  half-life: 13.7 h
[3]; po, 300 mg, Mean T1/2, 300 mg oral once daily, Day 5
  half-life: 15.5 h
[3]; po, 450 mg, Mean T1/2, 450 mg oral once daily, Day 1
  half-life: 13.4 h
[3]; po, 450 mg, Mean T1/2, 450 mg oral once daily, Day 5
  half-life: 16.8 h
[3]; po, 600 mg, Mean T1/2, 600 mg oral once daily, Day 1
  half-life: 13 h
[3]; po, 600 mg, Mean T1/2, 600 mg oral once daily, Day 5
  half-life: 16.8 h
[3]; oral, 600 mg, time at which mean plasma concentrations peaked (Tmax), all tested dose levels (300, 450, 600 mg), Day 1 and Day 5
  Tmax: 2.5 h
[3]; po, 300 mg, Mean AUC0-24, 300 mg oral once daily, Day 1
  AUC(0-t): 6640 ng·h/mL
[3]; po, 300 mg, Mean AUC0-24, 300 mg oral once daily, Day 5
  AUC(0-t): 9270 ng·h/mL
[3]; po, 300 mg, 300 mg oral once daily, Day 1
  Cmax: 649 ng/mL
[3]; po, 300 mg, 300 mg oral once daily, Day 5
  Cmax: 809 ng/mL
[3]; po, 300 mg, Mean Tmax, 300 mg oral once daily, Day 1
  Tmax: 2.5 h
[3]; po, 300 mg, Mean Tmax, 300 mg oral once daily, Day 5
  Tmax: 2.5 h
[3]; po, 450 mg, Mean AUC0-24, 450 mg oral once daily, Day 1
  AUC(0-t): 8980 ng·h/mL
[3]; po, 450 mg, Mean AUC0-24, 450 mg oral once daily, Day 5
  AUC(0-t): 13400 ng·h/mL
[3]; po, 450 mg, 450 mg oral once daily, Day 1
  Cmax: 874 ng/mL
[3]; po, 450 mg, 450 mg oral once daily, Day 5
  Cmax: 1080 ng/mL
[3]; po, 450 mg, Mean Tmax, 450 mg oral once daily, Day 1
  Tmax: 2.5 h
[3]; po, 450 mg, Mean Tmax, 450 mg oral once daily, Day 5
  Tmax: 2.5 h
[3]; po, 600 mg, Mean AUC0-24, 600 mg oral once daily, Day 1
  AUC(0-t): 10000 ng·h/mL
[3]; po, 600 mg, Mean AUC0-24, 600 mg oral once daily, Day 5
  AUC(0-t): 16400 ng·h/mL
[3]; po, 600 mg, 600 mg oral once daily, Day 1
  Cmax: 954 ng/mL
[3]; po, 600 mg, 600 mg oral once daily, Day 5
  Cmax: 1310 ng/mL
[3]; po, 600 mg, Mean Tmax, 600 mg oral once daily, Day 1
  Tmax: 2.51 h
[3]; po, 600 mg, Mean Tmax, 600 mg oral once daily, Day 5
  Tmax: 2.5 h
[3]; Day 1
  exposure (dose-normalized AUC0-24) as % of that predicted if perfectly dose-proportional: 76%
[3]; Day 5
  exposure (dose-normalized AUC0-24) as % of that predicted if perfectly dose-proportional: 88%
[4]
  bioavailability: 35%
  bioequivalence of oral and i.v. dose (based on serum AUC): bioequivalent
[4]; phase 3 tablet formulation (tosylate salt), fasting conditions, read-out: absolute bioavailability
  bioavailability: 34.5%
